Experimental findings from ChEMBL document CHEMBL5528053, “Discovery of Novel Isoquinoline Analogues as Dual Tubulin Polymerization/V-ATPase Inhibitors with Immunogenic Cell Death Induction” (J Med Chem, 2024) are described below.

pIC50: −log10 of the molar value. Activity calls are given as the source filed them. The calls are words filed in the database; no cut-off is given here.

The nature of series [1]: Anticancer activity against mouse RM1 cells assessed as increase in mean fluorescence intensity at 2 nM measured after 24 hrs by flow cytometry analysis (reference value: 7.40+/-3.96 ). Format: functional.
The next series deals with MDA-MB-231. As to the kind of experiment: Antiproliferative activity against human MDA-MB-231 cells assessed as inhibition of cell growth after 72 hrs by MTT assay. It counts as functional, cell-based. Conditions: MDA-MB-231, 72 h.
In the next series the test system is A549. The series is described as follows: Antiproliferative activity against human A549 cells assessed as inhibition of cell growth after 72 hrs by MTT assay. Format: functional, cell-based. Conditions: A549, 72 h.
Series [2] relates to PC-3. The series is described as follows: Antiproliferative activity against human PC-3 cells assessed as inhibition of cell growth after 72 hrs by MTT assay. It counts as functional, cell-based. Conditions: PC-3, 72 h.
The subject of another series is DU-145. As to the kind of experiment: Antiproliferative activity against human DU-145 cells assessed as inhibition of cell growth after 72 hrs by MTT assay. It counts as functional, cell-based. Conditions: DU-145, 72 h.
Series [3] in a line: Toxicity in ICR mouse assessed as decrease in lymphocytes at 5 mg/kg, ip measured for 14 days. It counts as organism-based. Conditions: in vivo, 336 h, time 14 day.
The nature of series [4]: Antitumor activity against mouse RM1 cells xenografted in immunocompetent […] mouse model assessed as tumor growth inhibition at 5 mg/kg, iv measured every two days for 14 days relative to control. Format: functional. Particulars: RM1, 336 h, time 14 day, read-out: TGI.
Series [5] has as its system RM1. As to the kind of experiment: Antitumor immunity against mouse RM1 cells homografted in C57BL/6 mouse model assessed as increase in activation of tumor infiltrating lymphocytes in spleen at 5 mg/kg, iv administered every two days for 14 days by flow cytometry analysis. Format: functional, organism-based. Particulars: time 14.0 day.
Series [6] is described as follows: Antitumor activity against mouse RM1 cells homografted in C57BL/6 mouse model assessed as tumor growth inhibition at 5 mg/kg, iv administered every two days for 14 days by vernier caliper based analysis relative to control. Particulars: RM1, 336 h, time 14 day, read-out: TGI. It counts as functional.
Series [7] can be described thus: Antitumor immunity against mouse RM1 cells homografted in C57BL/6 mouse model assessed as increase in tumor infiltrating helper T lymphocytes at 5 mg/kg, iv administered every two days for 14 days by flow cytometry analysis (reference value: 6.59%). Format: functional. Conditions: time 14 day.
Series [8] in a line: Toxicity in ICR mouse assessed as bone marrow suppression by measuring hemoglobin count at 5 mg/kg, ip measured for 14 days. Format: organism-based. Conditions: in vivo, 336 h, time 14 day.
For series [9], the system named is RM1. As to the kind of experiment: Antitumor immunity against mouse RM1 cells homografted in C57BL/6 mouse model assessed as increase in tumor infiltrating helper T lymphocytes in spleen at 5 mg/kg, iv administered every two days for 14 days by flow cytometry analysis. Format: functional, organism-based. Particulars: time 14.0 day.
The nature of series [10]: Toxicity in ICR mouse assessed as effect on ALT level at 5 mg/kg, ip measured for 14 days. Format: organism-based. Particulars: in vivo, 336 h, time 14 day.
Series [11] can be described thus: Antitumor immunity against mouse RM1 cells homografted in C57BL/6 mouse model assessed as increase in tumor infiltrating CD3+CD8+T cells (CTLs) at 5 mg/kg, iv administered every two days for 14 days by flow cytometry analysis (reference value: 0.89%). Particulars: time 14 day. Format: functional.
Series [12] has as its system RM1. As to the kind of experiment: Antitumor immunity against mouse RM1 cells homografted in C57BL/6 mouse model assessed as increase in tumor infiltrating CD3+CD8+T cells (CTLs) in spleen at 5 mg/kg, iv administered every two days for 14 days by flow cytometry analysis. Format: functional, organism-based. Particulars: time 14.0 day.
Series [13] can be described thus: Antitumor immunity against mouse RM1 cells homografted in C57BL/6 mouse model assessed as increase in tumor infiltrating lymphocytes at 5 mg/kg, iv administered every two days for 14 days by flow cytometry analysis (reference value: 5.26%). Format: functional. Conditions: time 14 day.
Series [14] is described as follows: Toxicity in ICR mouse assessed as bone marrow suppression by measuring WBC level at 5 mg/kg, ip measured for 14 days. Format: organism-based. Conditions: in vivo, 336 h, time 14 day.
Series [15] is described as follows: Toxicity in ICR mouse assessed as bone marrow suppression by measuring RBC level at 5 mg/kg, ip measured for 14 days. Particulars: in vivo, 336 h, time 14 day. It counts as organism-based, Erythrocyte.
The test system of series [16] is PC-3. As to the kind of experiment: Inhibition of autophagy in human PC-3 cells assessed as increase in number of autophagosomes at 50 uM measured after 3 hrs by immunofluorescence imaging based analysis. It counts as functional, cell-based.

Consider `COc1cccc2c1C(=O)c1c(O)c3c(c(O)c1C2=O)C[C@@](O)(C(=O)CO)C[C@@H]3O[C@H]1C[C@H](N)[C@H](O)[C@H](C)O1` [DOXORUBICIN], for which the Flu intensity in [1] is 184.3.

As for `CCCOc1c(OC)cc(-c2nc(C(N)=O)cc3cc4c(cc23)OCCO4)cc1OC`, the pIC50 with MDA-MB-231 was 5.62; in the series with A549, 5.86; in the series with PC-3 [2], 5.70; in the series with DU-145, 5.79.

Turning to `CCOc1ccc2c(-c3cc(OC)c(OC)c(OC)c3)nc(C(N)=O)cc2c1`, the pIC50 in the series on MDA-MB-231, in the series on A549, in the series with PC-3 [2] and in the series on DU-145 was less than 5.00 in each case.

With `COc1cc(-c2nc(C(N)=O)cc3cc4c(cc23)OCCO4)cc(OC)c1OC`, the pIC50 is 5.90 in the series with MDA-MB-231, 6.08 with A549, 5.93 in the series with PC-3 [2] and 5.98 in the series on DU-145.

On to `COc1c(I)cc(-c2nc(C(N)=O)cc3cc4c(cc23)OCCO4)cc1I`, for which the pIC50 in the series on MDA-MB-231 is 6.14; with A549, 5.67; in the series on PC-3 [2], 5.70; with DU-145, 5.49.

With `CCOc1cc(-c2nc(C(N)=O)cc3cc4c(cc23)OCCO4)cc(OC)c1OC`, the pIC50 is 6.32 in the series with MDA-MB-231, 6.43 with A549, 6.41 with PC-3 [2] and 6.27 in the series on DU-145.

As to `CCOc1c(OC)cc(-c2nc(C(N)=O)cc3cc4c(cc23)OCCO4)cc1OC`, the pIC50 in the series with MDA-MB-231, with A549, in the series with PC-3 [2] and in the series on DU-145 was less than 5.00 in each case.

For the compound `COc1cc(-c2nc(CO)cc3cc4c(cc23)OCCO4)cc(OC)c1OC`, the pIC50 is 5.87 in the series with MDA-MB-231, 5.90 in the series with A549, 5.79 with PC-3 [2] and 5.84 in the series with DU-145.

For the compound `COc1cc(-c2nc(C(=O)NO)cc3cc4c(cc23)OCCO4)cc(OC)c1OC`, the pIC50 in the series with MDA-MB-231 was 5.80; with A549, 5.76; in the series with PC-3 [2], 5.83; in the series with DU-145, 5.71.

With `COc1cc(-c2nc(C(N)=O)cc3cc(OCCCN4CCOCC4)ccc23)cc(OC)c1OC`, the pIC50 in the series on MDA-MB-231, with A549, in the series on PC-3 [2] and in the series on DU-145 was less than 5.00 each time.

`COc1cc2c(O)c3c(c(-c4ccc5c(c4)OCO5)c2cc1OC)C(=O)OC3` [DIPHYLLIN]: the pIC50 in the series with MDA-MB-231 is 5.64; in the series on A549, 6.05; with PC-3 [2] it was 6.68; in the series on DU-145, 6.42.

For the compound `COc1cc2c(c(OC)c1OC)-c1ccc(OC)c(=O)cc1[C@@H](NC(C)=O)CC2` [COLCHICINE], the results for the negative-log IC50 (pIC50) in the series with MDA-MB-231, with PC-3 [2] and in the series with DU-145 were 6.92, 7.30 and 7.15, respectively.

As to `COc1cc(-c2nc(C(N)=O)cc3cc4c(cc23)OCCO4)cc(I)c1OC`, the pIC50 in the series on MDA-MB-231 was 6.52; in the series with A549, 6.74; with PC-3 [2], 6.77; in the series with DU-145, 6.52.

In the case of `COc1cc(-c2nc(C(N)=O)cc3cc4c(cc23)OCCO4)cc2c1OCO2`, the pIC50 with MDA-MB-231 is 5.88; in the series with A549 it was 5.70; in the series with PC-3 [2] it was 5.95; with DU-145, 6.12.

Turning to `COc1c(Cl)cc(-c2nc(C(N)=O)cc3cc4c(cc23)OCCO4)cc1Cl`, the pIC50 in the series with MDA-MB-231 is 6.06; with A549 it was 6.60; in the series with PC-3 [2] it was 6.19; in the series with DU-145, 6.31.

Turning to `CCCOc1ccc2c(-c3cc(OC)c(OC)c(OC)c3)nc(C(N)=O)cc2c1`, the pIC50 in the series on MDA-MB-231, with A549, in the series on PC-3 [2] and in the series on DU-145 was less than 5.00 in each case.

On to `CC(=O)O[C@H]1C(=O)[C@@]2(C)[C@H]([C@H](OC(=O)c3ccccc3)[C@]3(O)C[C@H](OC(=O)[C@H](O)[C@@H](NC(=O)c4ccccc4)c4ccccc4)C(C)=C1C3(C)C)[C@]1(OC(C)=O)CO[C@@H]1C[C@@H]2O` [PACLITAXEL], for which the Activity result is “Toxic” in series [3]; 9.81% in series [7]; “Toxic” in series [8]; “Toxic” in series [10]; 1.16% in [11]; 5.68% in [13]. Moreover, the Activity result in series [14] and in series [15] was “Toxic” each time. Also, the inhibition in vivo at 5 mg/kg in [4] amounted to 55.5%; in series [6], 54.6%. Besides, the outcome in the series with RM1 [5] was Active. Moreover, the outcome in the series with RM1 [9] and in the series with RM1 [12] was inactive.

Turning to `COc1cc(-c2nc(C(=O)O)cc3cc4c(cc23)OCCO4)cc(OC)c1OC`, the pIC50 in the series on MDA-MB-231, with A549, with PC-3 [2] and with DU-145 was less than 5.00 in each case.

For the compound `COc1cc(-c2nc(C(N)=O)cc3cc4c(cc23)OCCO4)cc2c1OCCO2`, the pIC50 was 6.12 in the series on MDA-MB-231, 5.73 in the series on A549, 5.87 in the series on PC-3 [2] and 5.81 with DU-145.

Take `COc1cc(-c2nc(C(N)=O)cc3cc4c(cc23)OCCO4)cc(Cl)c1OC`: the pIC50 in the series on MDA-MB-231 is 6.68; with A549, 6.80; with PC-3 [2], 6.70; in the series on DU-145 it was 6.57.

As to `COc1cc(-c2nc(C(N)=O)cc3cc4c(cc23)OCCO4)cc2c1OCCCO2`, the pIC50 in the series on MDA-MB-231 was less than 5.00; with A549 it was 5.53; in the series on PC-3 [2], 5.48; with DU-145 it was 5.08.

For `COc1ccc2c(-c3cc(OC)c(OC)c(OC)c3)nc(C(N)=O)cc2c1`, the pIC50 in the series on MDA-MB-231, in the series on A549, in the series on PC-3 [2] and in the series on DU-145 was less than 5.00 each time.

Consider `CCN(CC)CCCC(C)Nc1ccnc2cc(Cl)ccc12` (stereo unspecified), for which the inhibition entry in the series with PC-3 [16] was “Active”.

For `COc1c(Br)cc(-c2nc(C(N)=O)cc3cc4c(cc23)OCCO4)cc1Br`, the pIC50 with MDA-MB-231 was 6.40; in the series on A549 it was 6.70; in the series with PC-3 [2], 6.57; in the series on DU-145 it was 6.49.

Regarding `COC(=O)c1cc2cc3c(cc2c(-c2cc(OC)c(OC)c(OC)c2)n1)OCCO3`, the pIC50 with MDA-MB-231 is 5.49; with A549, 5.82; in the series on PC-3 [2] it was 5.80; with DU-145, 5.68.

For `CCCOc1cc(-c2nc(C(N)=O)cc3cc4c(cc23)OCCO4)cc(OC)c1OC`, the pIC50 in the series with MDA-MB-231 was less than 5.00; in the series on A549, 5.25; in the series on PC-3 [2], less than 5.00; in the series on DU-145 it was less than 5.00.
